Results from patent US20200308222A1, “ANTIMICROBIAL TETRAPEPTIDES” (DSM IP ASSETS B.V., priority 2017, published 2020).
Non-standard residues stand in square brackets, D forms with d. Residues, ends and D or L forms follow the SMILES beside them. *: point of attachment. 2Nal = N[C@@H](Cc1ccc2ccccc2c1)C(=O)O; d2Nal = N[C@H](Cc1ccc2ccccc2c1)C(=O)O; Butanoyl(4-Ph) = O=C(CCCc1ccccc1)*; Dab = NCC[C@H](N)C(=O)O

How the values were obtained:
Experiment in all cases: Minimum inhibitory concentration (MIC), liquid media method in 96-well plates
P. acnes (ATCC 11827) = format: cell-based, Propionibacterium acnes; details: 5.5×10^5 cfu/ml per well; incubated 48 hours at 32,5° C.; turbidity read-out
Procedure: (§1) The peptides are dissolved in culture medium at 400 ppm. A control in the microbiological medium alone and a control consisting of Phenonip® prepared to 5% (v/v) directly in the microbiological medium was used. The determination of minimal inhibitory concentration of each product is performed according to a liquid media method adapted in 96-wells plates. To determine the minimum inhibitory concentration (MIC), the peptides are tested in serial dilutions (½ to ½ for 8 dilutions) directly in the liquid culture medium to favor the growth of bacteria in microplate 96 wells. Then, each point of dilution is contaminated with each strain at about 7×10^5 cfu/ml for S. aureus (ATCC 6538), 5.5×10^5 cfu/ml for P. acnes (ATCC 11827) and 1,2×10^5 cfu/ml for B. subtilis (ATCC 6633) per well. Finally, plates are incubated 48 hours at 32, 5° C.±2.5° C., taking care to respect the respiratory type of each strain. […] The last dilution corresponding to the absence of bacterial growth is taken as minimum inhibitory concentration (MIC) for the microbial strain considered.

S. aureus (ATCC 6538) = format: cell-based, Staphylococcus aureus; details: about 7×10^5 cfu/ml per well; incubated 48 hours at 32,5° C.; turbidity read-out
Procedure: as §1

B. subtilis (ATCC 6633) = format: cell-based, Bacillus subtilis; details: 1,2×10^5 cfu/ml per well; incubated 48 hours at 32,5° C.; turbidity read-out
Procedure: as §1

Compound	MIC values P. acnes (P. acnes (ATCC 11827))	MIC values S. aureus (S. aureus (ATCC 6538))	MIC values B. subtilis (B. subtilis (ATCC 6633))
N=C(N)NCCC[C@H](NC(=O)[C@@H](Cc1ccccc1)NC(=O)[C@H](Cc1c[nH]cn1)NC(=O)CCCc1ccccc1)C(=O)N[C@@H](Cc1ccc2ccccc2c1)C(N)=O [I-a, PhBu-His-D-Phe-Arg-L-2NaphAla-NH2 *2TFA] ({Butanoyl(4-Ph)}-H[dF]R[2Nal]-NH2)	500 ppm	125 ppm	62.5 ppm
N=C(N)NCCC[C@H](NC(=O)[C@@H](Cc1ccccc1)NC(=O)[C@H](Cc1c[nH]cn1)NC(=O)CCCc1ccccc1)C(=O)N[C@H](Cc1ccc2ccccc2c1)C(N)=O [I-b, PhBu-His-D-Phe-Arg-D-2NaphAla-NH2 *2TFA] ({Butanoyl(4-Ph)}-H[dF]R[d2Nal]-NH2)	400 ppm		100 ppm
COc1ccc(CCCC(=O)N[C@@H](Cc2c[nH]cn2)C(=O)N[C@H](Cc2ccccc2)C(=O)N[C@@H](CCCNC(=N)N)C(=O)N[C@@H](Cc2c[nH]c3ccccc23)C(N)=O)cc1 [I-c, 4-MeO—PhBu-His-D-Phe-Arg-Trp-NH2 × 2 AcOH]			200 ppm
CCCN(CCC)C(=O)[C@H](Cc1c[nH]c2ccccc12)NC(=O)[C@H](CCCNC(=N)N)NC(=O)[C@@H](Cc1ccccc1)NC(=O)[C@H](Cc1c[nH]cn1)NC(=O)CCCc1ccccc1 [I-d, PhBu-His-D-Phe-Arg-Trp-N(Propyl)2 *2TFA]	125 ppm	31.3 ppm	15.6 ppm
NCC[C@H](NC(=O)[C@@H](Cc1ccccc1)NC(=O)[C@H](Cc1c[nH]cn1)NC(=O)CCCc1ccccc1)C(=O)N[C@@H](Cc1c[nH]c2ccccc12)C(N)=O [I-e, PhBu-His-D-Phe-Dab-Trp-NH2 *2TFA] ({Butanoyl(4-Ph)}-H[dF][Dab]W-NH2)			400 ppm
N=C(N)NCCC[C@H](NC(=O)[C@@H](Cc1ccccc1)NC(=O)[C@H](Cc1c[nH]cn1)NC(=O)CCCc1ccccc1)C(=O)N[C@@H](Cc1c[nH]c2ccccc12)C(=O)NCc1ccccc1 [I-f, PhBu-His-D-Phe-Arg-Trp-NH-Bn *2TFA]		400 ppm	252 ppm
CCCCCCCCNC(=O)[C@H](Cc1c[nH]c2ccccc12)NC(=O)[C@H](CCCNC(=N)N)NC(=O)[C@@H](Cc1ccccc1)NC(=O)[C@H](Cc1c[nH]cn1)NC(=O)CCCc1ccccc1 [I-g, PhBu-His-D-Phe-Arg-Trp-NH-Octyl *2TFA]		200 ppm	252 ppm
N=C(N)NCCC[C@H](NC(=O)[C@@H](Cc1ccccc1)NC(=O)[C@H](Cc1c[nH]cn1)NC(=O)CCCc1ccccc1)C(=O)N[C@@H](Cc1c[nH]c2ccccc12)C(=O)NCC(O)CO (stereo partly drawn) [I-h, PhBu-His-D-Phe-Arg-Trp-NH—CH2—CH(OH)—CH2OH *2TFA]			317 ppm
